Legend:
5-HT1A receptor [1] = molecular target: T1, 5-HT1A receptor (Rattus norvegicus, UniProt P19327); experiment: Generalization to the discriminative stimulus properties induced by 8-OH-DPAT in rats (8-OH-DPAT cue, agonism); type: in vivo, rat (male Wistar); set-up: from tissue; host or cells: living male Wistar rat (in vivo, endogenous receptor); conditions: for ED50: rat, sc, usually 30 or 45 min before test
T1 sequence (P19327 1-422): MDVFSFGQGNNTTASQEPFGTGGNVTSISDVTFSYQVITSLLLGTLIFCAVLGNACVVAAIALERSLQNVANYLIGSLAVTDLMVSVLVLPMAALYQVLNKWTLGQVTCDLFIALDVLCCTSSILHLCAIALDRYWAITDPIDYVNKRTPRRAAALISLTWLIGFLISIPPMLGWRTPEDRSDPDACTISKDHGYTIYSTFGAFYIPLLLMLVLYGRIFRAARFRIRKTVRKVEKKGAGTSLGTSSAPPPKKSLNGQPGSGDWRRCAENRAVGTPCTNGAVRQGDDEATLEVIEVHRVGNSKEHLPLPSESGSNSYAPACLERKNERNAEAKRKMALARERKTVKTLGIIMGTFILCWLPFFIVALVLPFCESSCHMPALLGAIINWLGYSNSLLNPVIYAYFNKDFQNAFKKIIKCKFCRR
Source text: Generalization to the Discriminative Stimulus Properties Induced by 8-OH-DPAT in Rats
This test is used to determine the 5-HT1A receptor agonistic effect of a test compound in vivo. A related method is described by Tricklebank, M. D., supra; Amt, J. Pharmacology & Toxicology, 1989, 64, 165.
The per cent drug responce obtained for each dose of test compound is used to calculate ED50 values by log-probit analysis.

5-HT1A receptor [2] = molecular target: T1, 5-HT1A receptor; experiment: Inhibition of 3H-8-OH-DPAT binding to serotonin 5-HT1A receptors in rat brain in vitro; set-up: 5-HT1A receptors in membranes from rat brain minus cerebellum; from tissue; host or cells: rat brain minus cerebellum, membranes; conditions: 3H-8-OH-DPAT 1 nM; membranes from rat brain minus cerebellum; read-out: IC50, 3H 8-OH-DPAT binding
Description: Inhibition of ^3 H-8-OH-DPAT Binding to Serotonin 5-HT1A Receptors in Rat Brain in vitro.
By this method the inhibition by drugs of the binding of the 5-HT1A agonist 3H-8-OH-DPAT (1 nM) to 5-HT1A receptors in membranes from rat brain minus cerebellum is determined in vitro . Accordingly, this is a test for affinity for the 5-HT1A receptor. The assay was performed as described by Hyttel et al., Drug Dev. Res. 1988, 15, 389-404.

5-HT1A receptor [3] = molecular target: T1, 5-HT1A receptor; experiment: Inhibition of 5-MeO-DMT-induced 5-HT syndrome in rats; type: in vivo, rat (male Wistar); set-up: Male Wistar rats (Mol:Wist) weighing 170-240 g are used; from tissue; host or cells: living male Wistar rat (Mol:Wist) (in vivo, endogenous receptor); conditions: sc, 5-MeO-DMT 5 mg/kg s.c., inhibition of piano playing
Source text: Inhibition of 5-MeO-DMT-Induced 5-HT Syndrome in Rats
The so-called 5-HT syndrome is a characteristic pattern of behaviours which are induced by 5-HT agonists with effects on 5-HT, possibly 5-HT1A receptors (Smith, L. M. and Peroutka, S. J., Pharmacol. Biochem. & Behaviour, 1986, 24, 1513; Tricklebank, M. et al, Eur. J. Pharmacol. 1985, 117, 15). This test is a test for determining the antagonist effects of a test compound on 5-HT1A receptors in vivo by measuring the ability to inhibit 5-MeO-DMT induced 5-HT syndrome.
Male Wistar rats (Mol:Wist) weighing 170-240 g are used. Test substance is injected s.c. before 5-MeO-DMT 5 mg/kg, s.c. Four rats are used for each dose. A control group pretreated with saline is included each test day. 10, 15 and 20 min later the rats are observed for presence of serotonin (5-HT) syndrome. The following symptoms are recorded: 1) forepaw treading ("piano playing"), 2) head weaving and 3) hindleg abduction. Furthermore, flat motility is scored. Each part of the syndrome is scored as follows: marked effect (score 2), weak syndrome (score 1) and no effect (score 0). The scores of the three observation periods are added. Thus the maximum obtainable score for four rats is 24. The effect of the test substance is expressed as percent inhibition relative to the control group.
The percent inhibition of the piano playing syndrome is used as the response and ED50 value are calculated by log-probit analysis.

5-HT1A receptor [4] = molecular target: T1, 5-HT1A receptor; experiment: Antagonism of the discriminative stimulus properties induced by 8-OH-DPAT in rats (8-OH-DPAT cue); type: in vivo, rat (male Wistar); set-up: from tissue; host or cells: living male Wistar rat (in vivo, endogenous receptor); conditions: sc, before 8-OH-DPAT 0.4 mg/kg i.p.
Description: Antagonism of the Discriminative Stimulus Properties Induced by 8-OH-DPAT in Rats.
This test is used to determine the 5-HT1A receptor antagonistic effect of a test compound in vivo. A related method is described by Tricklebank, M. D., et al, Eur. J. Pharmacol, 1987, 133, 47-56; Amt, J. Pharmacology & Toxicology, 1989, 64, 165.
Male Wistar rats are trained to discriminate between 8-OH-DPAT (0.4 mg/kg, i.p., 15 min pretreatment) and physiological saline in operant chambers equipped with two response levers. Between the levers a dipper is placed, where water rewards (0.1 ml) are presented. The rats are water deprived for at least 24 h and work in a fixed ratio (FR) schedule (final FR=32).
Following 8-OH-DPAT administration, responding is reinforced only on a designated (drug) lever, whereas responding on the opposite lever has no consequences. Following saline administration, responding is reinforced on the lever opposite to the drug lever. Drug and saline trials alternate randomly between days. The level of discrimination accuracy is expressed as the per cent drug responses and is calculated as the number of correct responses ×100 divided by the sum of the correct and incorrect responses before the first reward. The time to the first reward is also recorded as a measure of reaction time. When stable accuracy (mean correct responding=90%; individual rats at least 75% correct responding) is obtained test sessions are included between training days. Test compound is injected s.c. or p.o. at appropriate time before 8-OH-DPAT and the test begins 15 min after 8-OH-DPAT injection. The test trial is terminated when a total of 32 responses are made on either lever or when 20 min have elapsed. No reward is given and the rats have free access to water for 20-30 min after the test. The effects are expressed as per cent inhibition of drug responding. Only results from rats making at least 10 responses on one lever are included in data analysis. Furthermore, only test sessions in which at least half of the rats respond are included.
The per cent inhibition of drug response obtained for each dose of test compound is used to calculate ED50 values by log-probit analysis.

| SMILES | ED50 (5-HT1A receptor [1]) [µmol/kg] | IC50 (5-HT1A receptor [2]) [nM] | ED50 (5-HT1A receptor [3]) [µmol/kg] | agonist activity/efficacy in words, 8-OH-DPAT cue (5-HT1A receptor [1]; 8-OH-DPAT cue model, s.c.) | response, 8-OH-DPAT cue agonism (5-HT1A receptor [1]; at 0.08-19 μmol/kg, s.c. (note b)) | ED50 (5-HT1A receptor [4]) [µmol/kg] |
| --- | --- | --- | --- | --- | --- | --- |
| CC1(C)Cc2cccc(N3CCN(CCN4CCN(c5ccccc5)C4=O)CC3)c2O1 [Compound 2n, 1-[2-[4-(2,3-Dihydro-2,2-dimethylbenzofuran-7-yl)-1-piperazinyl]ethyl]-3-phenyl-2-imidazolidinone] | 0.13 | 3.2 | – | – | – | – |
| CC1(C)Cc2cccc(N3CCN(CCN4CCN(C5CCCC5)C4=O)CC3)c2O1 [Compound 2p, 1-Cyclopentyl-3-[2-[4-(2,3-dihydro-2,2-dimethylbenzofuran-7-yl)-1-piperazinyl]ethyl]-2-imidazolidinone] | 1.1 | 3.7 | 4.2 | – | – | – |
| [O-][S+](CCCN1CCN(c2cccc3c2OCCO3)CC1)C1CCCCC1 (stereo not drawn) [Compound 3a, 1-(1,4-Benzodioxan-5-yl)-4-(3-cyclohexylthio-1-propyl)piperazine S-oxide] | 0.02 | 1.8 | 5.2 | – | – | – |
| O=S(=O)(CCCN1CCN(c2cccc3c2OCC3)CC1)C1CCCCC1 [Compound 1c, 1-(3-Cyclohexylsulfonyl-1-propyl)-4-(2,3-dihydrobenzofuran-7-yl)piperazine] | 0.069 | 2.6 | 12 | – | – | – |
| CC1(C)Cc2cccc(N3CCN(CCCCN4CCN(C5CCCCC5)C4=O)CC3)c2O1 [Compound 2bb, 1-Cyclohexyl-3-[4-[4-(2,3-dihydro-2,2-dimethylbenzofuran-7-yl)-1-piperazinyl]-1-butyl]-2-imidazolidinone] | 0.036 | 0.92 | 0.78 | – | – | – |
| O=C1N(CCN2CCN(c3cccc4c3OCCO4)CC2)CCN1C1CCCCC1 [Compound 2d, 1-[2-[4-(1,4-Benzodioxan-5-yl)-1-piperazinyl]ethyl]-3-cyclohexyl-2-imidazolidinone] | – | – | 10 | partial agonist | 30-50% | 6.3 |
| O=C1N(CCN2CCN(c3cccc4c3OCC4)CC2)CCN1C1CCCC1 [Compound 2f, 1-Cyclopentyl-3-[2-[4-(2,3-dihydrobenzofuran-7-yl)-1-piperazinyl]ethyl]-2-imidazolidinone] | 40 | 54 | 28 | – | – | – |
| O=S(=O)(CCCN1CCN(c2cccc3c2OCCO3)CC1)C12CC3CC(CC(C3)C1)C2 [Compound 1f, 1-[3-(1-Adamantyl)sulfonyl-1-propyl]-4-(1,4-benzodioxan-5-yl)piperazine] | 0.052 | 1.1 | 0.47 | – | – | – |
| O=C1N(CCN2CCN(c3cccc4ccoc34)CC2)CCN1c1ccccc1 [Compound 2m, 1-[2-[4-Benzofuran-7-yl-1-piperazinyl]ethyl]-3-phenyl-2-imidazolidinone] | 2.3 | 12 | – | – | – | – |
| O=C1N(CCN2CCN(c3cccc4c3ccn4-c3ccc(F)cc3)CC2)CCN1C1CCCC1 [Compound 7a, 1-Cyclopentyl-3-[2-[4-[1-(4-fluorophenyl)-4-indolyl]-1-piperazinyl]ethyl]-2-imidazolidinone] | – | 51000 | – | – | – | – |
| O=C1N(CCN2CCN(c3cccc4ccsc34)CC2)CCN1C1CCCC1 [Compound 2aa, 1-[2-[4-Benzo[b]thiophen-7-yl-1-piperazinyl]ethyl]-3-cyclopentyl-2-imidazolidinone] | – | 11 | – | – | – | – |
| O=c1n(CCN2CCN(c3cccc4c3OCCO4)CC2)c2ccccc2n1-c1ccc(F)cc1 [Compound 12a, 1-[2-[4-(1,4-Benzodioxan-5-yl)-1-piperazinyl]ethyl]-3-(4-fluorophenyl)-2(3H)-benzimidazolone] | – | 36 | – | – | – | – |
| O=C1N(CCN2CCN(c3cccc4occc34)CC2)CCN1c1ccccc1 [Compound 2r, 1-[2-(4-Benzofuran-4-yl-1-piperazinyl)ethyl]-3-phenyl-2-imidazolidinone] | – | 23 | – | – | – | – |
| O=C1N(CCN2CCN(c3cccc4cc[nH]c34)CC2)CCN1c1ccccc1 [Compound 2v, 1-[2-[4-(7-Indolyl)-1-piperazinyl]ethyl]-3-phenyl-2-imidazolidinone] | – | 71 | – | – | – | – |
| O=S(=O)(CCCN1CCN(c2cccc3c2OCCO3)CC1)c1ccccc1 [Compound 1b, 1-(1,4-Benzodioxan-5-yl)-4-(3-phenylsulfonyl-1-propyl)piperazine] | 0.099 | 7.8 | 9.5 | – | – | – |
| CC1(C)Cc2cccc(N3CCN(CCCN4CCN(c5ccccc5)C4=O)CC3)c2O1 [Compound 2ff, 1-[3-[4-(2,3-Dihydro-2,2-dimethylbenzofuran-7-yl)-1-piperazinyl]-1-propyl]-3-phenyl-2-imidazolidinone] | – | 6.6 | – | – | – | – |
| O=C1N(CCN2CCN(c3cccc4[nH]ccc34)CC2)CCN1C1CCCC1 [Compound 2y, 1-Cyclopentyl-3-[2-[4-(4-indolyl)-1-piperazinyl]ethyl]-2-imidazolidinone] | – | 28 | 2.7 | – | – | 1.9 |
| O=c1n(CCN2CCN(c3cccc4c3OCCO4)CC2)ccn1-c1ccc(F)cc1 [Compound 5a, 1-[3-[4-(1,4-Benzodioxan-5-yl)-1-piperazinyl]-1-ethyl]-1,3-dihydro-3-(4-fluorophenyl)-2-imidazolone] | 1.8 | 11 | 12 | – | – | – |
| O=C1N(CCN2CCN(c3cccc4c3OCC4)CC2)CCN1c1ccc(F)cc1 [Compound 2i, 1-[2-[4-(2,3-Dihydrobenzofuran-7-yl)-1-piperazinyl]ethyl]-3-(4-fluorophenyl)-2-imidazolidinone] | – | 30 | – | – | – | – |
